Values quoted from earlier work as cited in patent US20230036624A1, “RETINOL-BASED COMPOSITION” (L'OREAL, priority 2019, published 2023).

Test system: human epidermal keratinocytes grown in monolayer culture

CCCCCCCCCCCCCCCC(=O)OC/C=C(C)/C=C/C=C(C)/C=C/C1=C(C)CCCC1(C)C [retinyl palmitate]
effectiveness compared with retinol, measured at the transcriptomic level: less effective than retinol
